From patent US7714014B2, “Targeting GLI proteins in human cancer by small molecules” (The Regents of the University of California, priority 2005, dated 2010)

What was measured:
[1] = system: normal human muscle cells; test: Cell survival assay (crystal violet); format: cell-based; conditions: 1, 10, 30, and 50 μM, 3 days
Experimental: (§1) Typically, the small molecule compounds of the present invention were dissolved in DMSO at a concentration of 30 mM. The small molecule compounds were then tested under cell culture conditions at different concentrations ranging from 0, 10, 30, 50, to 100 uM. To determine cell survival after treatment, the cells were incubated with the small molecule compounds in 6-well plates for about 3 days. After removal of the cell culture medium, 1-ml of 0.5% crystal violet solution (prepared in 20% ethanol and 20% methanol) was added to stain the cells for 5 min. Then the crystal violet solution was rinsed clean with tap water. Cell survival was estimated based on the density of crystal stained plates.
The cell killing effect of small molecule compounds FN1-8, FN1-7, and FN1-5 at different doses was examined in normal human muscle cells. […] Normal muscle cells were plated in 6-well plates and incubated with 1, 10, 30, and 50 μM of each compound for 3 days, in the same manner as described herein for similar other experiments. […] Both FN1-5 and FN1-8 seem to be specific in killing cancer cells.

[2] = system: human SOCS3 promoter in NSCLC cell line A549; test: SOCS3 promoter-luciferase reporter assay; format: cell-based; conditions: A549, 30 μM, 18-24 hours
Experimental: One day before transfection, cells (1×10^5) were plated in 12-well plates with growth medium without antibiotics. When cells reached 80-90% of confluence they were co-transfected using 0.5 μg of each promoter construct in pGL3Basic vector and 0.025 μg pRL-TK Vector (Promega; Madison, Wis.) containing Renilla Luciferase as an internal control for the transformation efficiency. Lipofectamine 2000™ (Invitrogen Life Technologies) was used to mediate transfection for about 6 hours. Then the medium was replaced with fresh medium containing various small molecule compounds at a concentration of 30 μM, and the resulting cells were cultured for an additional 18-24 hours and subjected to luciferase assay. Briefly, cells were lysed in a lysis buffer and Firefly and Renilla Luciferase activities in cells of each well, were measured using Dual-Luciferase Assay System (Promega) and an illuminometer. The measured luciferase activities were normalized to pRL-TK Vector activity and were given relative to the basal activity of empty pGL3-Basic Vector, which was set to unity. The data shown represent mean values (±S.D.). All measurements were performed in triplicate and repeated in at least three independent experiments. The human Wnt-2 promoter-luciferase construct, the human SOCS3 promoter-Luciferase construct and the human Gremlin promoter-luciferase construct were cloned and characterized in the laboratory of Dr. Jablons at the University of California, San Francisco (San Francisco, Calif.; He et al., Biochem Biophy Res Comm, 2003; and unpublished data). The 6GLI-TKO-luciferase construct (containing 6 repeats of consensus GLI DNA binding sequence) was kindly provided by Dr. Matthias Hebrok's laboratory at the University of California, San Francisco (San Francisco, Calif.).
As a third specificity test for the small molecule compounds of the present invention, the ability of these compounds to regulate the expression of genes that are not down-stream targets of the Gli activation was analyzed. SOCS3, an inhibitor and down-stream target gene of JAK/STAT pathway was chosen for this experiment. Expression of SOCS3 is not under control of Gli and/or Wnt activation. Furthermore, no GLI and TCF binding sites were found in the human SOCS3 promoter cloned in the laboratory of Dr. Jablons (University of California, San Francisco; data not shown). Thus, SOCS3 promoter-luciferase reporter activity was measured after the treatment of the NSCLC cell line A549 with small molecule compounds FN1-5, FN1-7, FN1-8, and FN1-9U.

melanoma cell line LOX = test: Cell survival assay (crystal violet); format: cell-based, human; conditions: 100 μM, 3 days
Experimental: as §1
The effect of small molecule compounds FN1-5, FN1-8, FN1-7, FN1-9U, and FN1-9S was tested using a cytotoxicity assay and the melanoma cell line LOX. LOX cells were plated in 6-well plates and incubated with 100 μM of each compound (stocks were dissolved in DMSO at 30 mM) for 3 days, as described herein. […] Live cells were stained by 0.5% crystal violet.
Cell killing was also tested using human melanoma cell line LOX and different doses of the small molecule compounds FN1-5 and FN1-8. LOX cells were plated in 6-well plates and incubated with 10, 30, and 50 μM of each compound for 3 days, as described herein.

[3] = system: primary cultured human mesothelioma cells; test: Cell survival assay (crystal violet); format: cell-based; conditions: 50 and 100 μM, 3 days
Experimental: Fresh cancer tissue and adjacent normal tissue from patients undergoing curative primary resection of their tumors were collected at the time of surgery (IRB approval H8714-15319-040), and immediately snap-frozen in liquid nitrogen. These tissue samples were kept at −170° C. in a liquid nitrogen freezer until further use. Primary tissue cultures were prepared as follows: Fresh cancer tissue was obtained with consent from patients undergoing resection, cut into small pieces (1-2 mm in diameter), and then digested with Collagenase A (Roche Applied Science, Indianapolis, Ind.) at room temperature for 2 hours according to manufacture's protocol. Single cells from the digestion were spun down and the cell pellets were washed twice using RPMI 1640 supplemented with 10% fetal bovine serum, penicillin (100 IU/ml) and streptomycin (100 μg/ml). Then, the cells were resuspended in the same medium and cultured in 6-well plates at 37° C. in a humid incubator with 5% CO2 until they were ready for further treatments.
as §1
Next, the effect of different small molecule compounds on primary cultured human mesothelioma cells freshly made from tissue samples was examined. The primary cultures were plated in 6-well plates as described herein and incubated with 50 and 100 μM of each compound (FN1-5, FN1-7, FN1-8, and FN3-5; stocks were dissolved in DMSO at 30 mM) for 3 days. […] (FIG. 8).

H1299 and A549 cells = test: Cytotoxicity and apoptosis assays; format: cell-based, human; conditions: 10, 30, 50, and 100 μM; data not shown
Experimental: as §1
(§2) Apoptosis was analyzed by using an Annexin V FITC Apoptosis Detection Kit (Biosource, Camarillo, Calif.), according to the manufacturer's protocol. After treatment with different small molecule compounds at various concentrations for about 3 days, cells were harvested by trypsinization, stained and immediately analyzed by flow cytometry (FACScan; Decton Dickinson, Franklin Lake, N.J.). Early apoptotic cells with exposed phosphatidylserine but intact cell membranes will bind to Annexin V-FITC, but not propidium iodide (PI). Cells in necrotic or late apoptotic stages will be labeled with both Annexin V-FITC and PI. […]

[4] = system: mesothelioma cell line MS-1; test: Cytotoxicity and apoptosis assays; format: cell-based, human; conditions: 10, 30, 50, and 100 μM (FN1-9U effect at 100 μM)
Experimental: as §1, §2

[5] = system: colon cancer cell lines SW480 and HCT116; test: Cytotoxicity and apoptosis assays; format: cell-based, human; conditions: 10, 30, 50, and 100 μM; data not shown
Experimental: as §1, §2

| Compound | cell killing effect in normal cells [1] | SOCS3 promoter activity [2] | cell killing effect (melanoma cell line LOX) | cell killing effect [3] | cell killing effect or apoptosis (H1299 and A549 cells) | cell killing effect or apoptosis [4] | cell killing effect or apoptosis [5] |
| --- | --- | --- | --- | --- | --- | --- | --- |
| O=C(NCCCO)C1C(c2ccccc2)=NN(c2ccccc2)C1c1ccccc1 (stereo not shown) [FN1-7, N-(3-Hydroxypropyl)-1,3,5-triphenyl-4,5-dihydro-pyrazole-4-carboxyanide] | No noticeable cell killing effect | inactive | Some killing | No significant cell killing | – | – | – |
| CC(C)CC1=NN(c2ccccc2)C(CC(C)C)C1C(=O)NCCCCCO (stereo not shown) [FN3-5, N-(5-Hydroxypentyl)-1-phenyl-3,5-bis(isobutyl)-4,5-dihydro-pyrazole-4-carboxyamide] | – | – | – | No significant cell killing | – | – | – |
| O=C(O)CCCCNC(=O)C1C(c2ccccc2)=NN(c2ccccc2)C1c1ccccc1 (stereo not shown) [FN1-9U, 5-(1,3,5-Triphenyl-4,5-dihydro-pyrazole-4-carbonyl)aminopentanoic acid] | – | inactive | Some killing | – | no noticeable cell killing effect or apoptosis | some cell killing | No dramatic cell killing effect or apoptosis |
| O=C(O)CCCCNC(=O)C1C(c2ccccc2)C(c2ccccc2)=NN1c1ccccc1 (stereo not shown) [FN1-9S, 5-(1,3,4-triphenyl-4,5-dihydro-pyrazole-5-carbonyl)aminopentanoic acid] | – | – | – | – | no noticeable cell killing effect or apoptosis | no cell killing effect or apoptosis | No dramatic cell killing effect or apoptosis |
